Test results as given in the supplement of paper PMC4862054.

Columns and labels:
Experiment in all cases: normalised response (% of control), CellTiter-Glo; higher = more viable cells (100 = DMSO, 0 = benzethonium chloride kill control)
Details in all cases: incubation time: 72 h
BT-474 = tested on: BT-474
In short: (§1)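 The table gives the normalised signal for a single concentration in each entry. Breast cancer cell lines were seeded (20 µl suspension) into 384-well plates holding compound at 5 concentrations in 10-fold steps over a compound-specific 10,000-fold range and incubated 72 h, then read for CellTox Green fluorescence (485/520 nm) and CellTiter-Glo luminescence. Normalisation on each plate used 0.1 % DMSO (100) and a positive kill control (0).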

HCC1143 = tested on: HCC1143
In short: as §1

MDA-MB-436 = tested on: MDA-MB-436
In short: as §1

HCC1599 = tested on: HCC1599
In short: as §1

SK-BR-3 = tested on: SK-BR-3
In short: as §1

MCF-10A = tested on: MCF-10A
In short: as §1

CAL-85-1 = tested on: CAL-85-1
In short: as §1

CAL-148 = tested on: CAL-148
In short: as §1

MDA-MB-231 = tested on: MDA-MB-231
In short: as §1

HDQ-P1 = tested on: HDQ-P1
In short: as §1

Hs578T = tested on: Hs578T
In short: as §1

MDA-MB-468 = tested on: MDA-MB-468
In short: as §1

CAL-120 = tested on: CAL-120
In short: as §1

MFM-223 = tested on: MFM-223
In short: as §1

BT-549 = tested on: BT-549
In short: as §1

MDA-MB-453 = tested on: MDA-MB-453
In short: as §1

CAL-51 = tested on: CAL-51
In short: as §1

HCC1937 = tested on: HCC1937
In short: as §1

DU-4475 = tested on: DU-4475
In short: as §1

Structure (SMILES)	normalised response (BT-474)	normalised response (HCC1143)	normalised response (MDA-MB-436)	normalised response (HCC1599)	normalised response (SK-BR-3)	normalised response (MCF-10A)	normalised response (CAL-85-1)	normalised response (CAL-148)	normalised response (MDA-MB-231)	normalised response (HDQ-P1)	normalised response (Hs578T)	normalised response (MDA-MB-468)	normalised response (CAL-120)	normalised response (MFM-223)	normalised response (BT-549)	normalised response (MDA-MB-453)	normalised response (CAL-51)	normalised response (HCC1937)	normalised response (DU-4475)
Cc1c(N)nc([C@H](CC(N)=O)NC[C@H](N)C(N)=O)nc1C(=O)N[C@H](C(=O)N[C@H](C)[C@@H](O)[C@H](C)C(=O)N[C@H](C(=O)NCCc1nc(-c2nc(C(=O)NCCC[S+](C)C)cs2)cs1)[C@@H](C)O)[C@@H](OC1OC(CO)C(O)C(O)C1OC1OC(CO)C(O)C(OC(N)=O)C1O)c1cnc[nH]1 (stereo partly specified) [Bleomycin] (10 nM)	95.7%	98.9%	94.2%	97.7%	106%	100%	96.1%	85%	96.3%	97.6%	99.8%	98%	97.3%	101%	87.6%	104%	97.5%	93.3%	98.1%
O=C(c1cc(Cc2n[nH]c(=O)c3ccccc23)ccc1F)N1CCN(C(=O)C2CC2)CC1 [Olaparib] (10 nM)	97.1%	95.6%	91.8%	113%	100%	99.5%	108%	98.9%	90.2%	96.2%	98.6%	101%	93.2%	93%	98.2%	97.8%	110%	101%	102%
CCc1cnn2c(NCc3ccc[n+]([O-])c3)cc(N3CCCC[C@H]3CCO)nc12 [Dinaciclib] (0.1 nM)	97.1%	102%	99.3%	103%	103%	106%	98.4%	110%	98.5%	104%	99%	93.8%	99.6%	100%	109%	99%	82.8%	102%	102%
Cc1c(C(=O)Nc2ccc(N3C[C@@H](C)O[C@@H](C)C3)nc2)cccc1-c1ccc(OC(F)(F)F)cc1 [Erismodegib] (10 nM)	92.9%	93.4%	91.9%	104%	69.9%	86%	95.2%	94.6%	99.2%	95.5%	101%	86.6%	91.7%	91.9%	99.6%	81.8%	127%	96.3%	101%
O=NN(CCCl)C(=O)NC1CCCCC1 [Lomustine] (10 nM)	105%	103%	95.2%	83.8%	90.8%	107%	95%	98.6%	99.4%	102%	108%	92.5%	98.3%	104%	98.3%	106%	120%	102%	102%
CC[C@@H]1C(=O)N(C)c2cnc(Nc3ccc(C(=O)N[C@H]4CC[C@H](N5CCN(CC6CC6)CC5)CC4)cc3OC)nc2N1C(C)C [Volasertib] (1 nM)	89.7%	99.9%	100%	113%	98.5%	102%	102%	105%	97.6%	92.5%	103%	90.1%	100%	98.3%	102%	77.1%	111%	99.2%	100%
CCc1c(C(=O)C(N)=O)c2c(OCC(=O)O)cccc2n1Cc1ccccc1 [Varespladib] (10 nM)	97.2%	102%	96%	95.9%	99.1%	105%	97.3%	104%	99.7%	97.1%	104%	98.9%	96%	102%	92.9%	95.4%	107%	97.7%	102%
CC[C@H](CC#N)OC(=O)N[C@@H](C)c1cccc(NC(=O)Nc2ccc(-c3cnco3)c(OC)c2)c1 [AVN944] (1 nM)	89.2%	93.2%	91.1%	90.3%	95.7%	99.1%	97%	99.8%	96.1%	99.4%	97.8%	97.2%	96.7%	93.5%	98.5%	99.6%	112%	103%	97.9%
Cc1c(C(=O)Nc2ccc(N3C[C@@H](C)O[C@@H](C)C3)nc2)cccc1-c1ccc(OC(F)(F)F)cc1 [Erismodegib] (1 nM)	93.9%	93.8%	85.3%	102%	91.3%	84.4%	97.8%	91.7%	99%	94.1%	91.6%	99.8%	99.2%	96.7%	93.8%	96.1%	88.2%	96.1%	97.5%
CCCc1cc(C)[nH]c(=O)c1CNC(=O)c1cc(-c2ccnc(N3CCN(C)CC3)c2)cc2c1cnn2C(C)C [GSK343] (10 nM)	97.2%	104%	91.1%	103%	109%	103%	91.6%	80.2%	91.7%	97.6%	101%	87.4%	97%	93.3%	96.5%	94.2%	81.4%	103%	94%
COc1cc(Nc2ncc(F)c(Nc3ccc4c(n3)N(COP(=O)(O)O)C(=O)C(C)(C)O4)n2)cc(OC)c1OC [Fostamatinib] (0.25 nM)	97.2%	100%	110%	111%	98%	103%	99.3%	93.3%	101%	99.1%	99.2%	97.4%	107%	94.9%	107%	99.4%	83.5%	106%	96.2%
CCCc1cc(C)[nH]c(=O)c1CNC(=O)c1cc(-c2ccnc(N3CCN(C)CC3)c2)cc2c1cnn2C(C)C [GSK343] (1 nM)	94.2%	87.7%	97.3%	80.2%	91.9%	99.5%	102%	84.4%	92.5%	98%	105%	89%	95.5%	94.7%	100%	99.5%	116%	93.4%	92.7%
NC(=O)c1cccc2cn(-c3ccc([C@@H]4CCCNC4)cc3)nc12 [MK-4827] (10 nM)	110%	107%	107%	104%	83.4%	114%	106%	108%	101%	93.7%	98.4%	98.6%	107%	104%	101%	105%	125%	96.9%	104%
NC1(c2ccc(-c3nc4ccn5c(=O)[nH]nc5c4cc3-c3ccccc3)cc2)CCC1 [MK-2206] (1 nM)	111%	103%	104%	105%	112%	106%	95.9%	112%	103%	96.5%	96.5%	101%	99.2%	109%	92.9%	100%	80.6%	92.6%	104%
C[C@]12C=CC(=O)C=C1CC[C@@H]1[C@@H]2C(=O)C[C@@]2(C)[C@H]1CC[C@]2(O)C(=O)CO [Prednisone] (10 nM)	103%	101%	101%	96.9%	123%	109%	99.9%	108%	98.7%	96.3%	96.7%	98.4%	104%	104%	98%	118%	118%	95.8%	107%
CC/C(=C(\c1ccccc1)c1ccc(OCCN(C)C)cc1)c1ccccc1 [Tamoxifen] (10 nM)	103%	114%	100%	103%	100%	112%	98.8%	108%	100%	104%	97.3%	99.2%	100%	108%	91.8%	98.7%	83.8%	103%	104%
CC(C)C[C@H](NC(=O)[C@H](CCc1ccccc1)NC(=O)CN1CCOCC1)C(=O)N[C@@H](Cc1ccccc1)C(=O)N[C@@H](CC(C)C)C(=O)[C@@]1(C)CO1 [Carfilzomib] (1 nM)	115%	106%	109%	108%	107%	115%	105%	108%	105%	108%	100%	106%	105%	112%	99.5%	101%	87.7%	101%	108%
Cn1cc(C[C@@H](N)C(=O)O)c2ccccc21 [1-methyl-D-tryptophan] (0.5 nM)	96.1%	96.5%	103%	102%	93%	97.1%	94.3%	87.4%	95.2%	105%	99.3%	98%	95.6%	92.8%	101%	99.4%	113%	97.6%	101%
CO[C@H](C(=O)[C@@H](O)[C@@H](C)O)[C@@H]1Cc2cc3cc(O[C@H]4C[C@@H](O[C@@H]5C[C@@H](O)[C@H](O)[C@@H](C)O5)[C@H](O)[C@@H](C)O4)c(C)c(O)c3c(O)c2C(=O)[C@H]1O[C@H]1C[C@@H](O[C@@H]2C[C@@H](O)[C@@H](O[C@@H]3C[C@](C)(O)[C@H](O)[C@@H](C)O3)[C@@H](C)O2)[C@H](O)[C@@H](C)O1 [Plicamycin] (10 nM)	108%	103%	101%	117%	111%	114%	103%	116%	103%	96.4%	105%	109%	101%	108%	104%	118%	74.9%	97.7%	107%
